Experimental findings from PMC4766633, “Unique PFK regulatory property from some mosquito vectors of disease, and from Drosophila melanogaster” (Parasites & Vectors, 2016) are described below.

Series [1] has as its target T1, AaPFK (Aedes aegypti phosphofructokinase) (Aedes aegypti, UniProt A0A903U8I9).
T1 construct: gene 5568472; native enzyme in supernatant of whole-insect homogenate, not purified
T1 sequence (A0A903U8I9 1-790): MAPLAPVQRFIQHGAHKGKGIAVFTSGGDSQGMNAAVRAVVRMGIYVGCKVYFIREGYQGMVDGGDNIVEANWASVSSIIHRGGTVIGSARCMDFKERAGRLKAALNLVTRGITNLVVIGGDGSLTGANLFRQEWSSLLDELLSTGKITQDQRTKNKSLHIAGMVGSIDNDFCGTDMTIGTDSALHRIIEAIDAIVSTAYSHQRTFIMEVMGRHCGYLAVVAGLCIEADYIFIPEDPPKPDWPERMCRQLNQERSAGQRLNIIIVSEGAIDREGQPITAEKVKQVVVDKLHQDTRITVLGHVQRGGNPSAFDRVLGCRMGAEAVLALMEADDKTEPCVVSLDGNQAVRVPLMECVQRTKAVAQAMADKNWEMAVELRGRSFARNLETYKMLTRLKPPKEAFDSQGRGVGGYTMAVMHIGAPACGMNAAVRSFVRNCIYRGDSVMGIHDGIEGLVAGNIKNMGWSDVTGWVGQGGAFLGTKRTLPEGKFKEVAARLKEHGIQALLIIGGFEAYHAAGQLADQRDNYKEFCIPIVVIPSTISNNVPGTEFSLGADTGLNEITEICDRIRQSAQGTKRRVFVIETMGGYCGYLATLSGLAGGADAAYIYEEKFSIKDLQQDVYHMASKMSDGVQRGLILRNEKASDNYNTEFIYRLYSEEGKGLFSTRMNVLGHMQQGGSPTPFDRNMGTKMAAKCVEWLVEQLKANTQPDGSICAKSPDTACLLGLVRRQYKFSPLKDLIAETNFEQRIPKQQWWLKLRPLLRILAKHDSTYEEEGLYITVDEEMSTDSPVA
The series can be described thus: coupled NADH oxidation assay (aldolase/TPI/alpha-GPDH), […] nm. The series is classed as biochemical. To be noted: substrate inhibition, allosteric, second site; 1 mM F6P, 5 mM MgCl2, pH 7.4; crude extract; unit not printed (ATP range given in mM).

Substrate in series [2]: Nc1ncnc2c1ncn2[C@@H]1O[C@H](COP(=O)(O)OP(=O)(O)OP(=O)(O)O)[C@@H](O)[C@H]1O
Briefly: cells, lysate or membranes. To be noted: 1 mM F6P, 5 mM MgCl2, pH 7.4 (Fig. 1 legend: pH 8.0); crude extract; Table 1 labels this number Kprime = K0.5^h with h 0.741.

As to `Nc1ncnc2c1ncn2[C@@H]1O[C@H](COP(=O)(O)OP(=O)(O)OP(=O)(O)O)[C@@H](O)[C@H]1O` [ATP], the “ATP / Activity [U (mg protein) ^-1]” value in series [1] is recorded as 4.536 ± 0.178.

B1: AaPFK (Aedes aegypti phosphofructokinase) (Aedes aegypti) (protein)
chain: T1 sequence (A0A903U8I9 1-790)
For B1, in series [2], the K0.5 came to 0.43 ± 0.10 mM.
